Reference: patent publication US9075014B2, “pH-responsive fluorescent false neurotransmitters and their use” (THE TRUSTEES OF COLUMBIA UNIVERSITY IN THE CITY OF NEW YORK, priority 2011, dated 2015)
Several values for one entry are separate records, joined by “and”; a condition that tells them apart may be missing. Equal values may be shown once. Entries after “also recorded” stand apart in the source; their conditions may differ.

Tests used:
[1] = log D by shake flask method (n-octanol / PBS pH 7.4); format: physicochemical
Procedure: The log D values were determined by traditional shake flask method. Each measurement was performed in duplicate as follows. First, 20 μM probe solution in 1 mL PBS (pH 7.4) was prepared to which 1 mL of n-octanol was added and mixed thoroughly. The mixture was kept in dark for 3 days for complete equilibrium, and the concentrations of probe in each layer were determined based on the UV absorbance. Log D values were determined based on the equation; log D=log [probe]oct−log [probe]PBS, where [probe]oct and [probe]PBS are the concentrations of the probe in n-octanol and PBS, respectively.

[2] = pKa from absorption spectra in PBS at different pH; format: physicochemical; conditions: from absorbance at λabs,max versus pH of PBS
Procedure: UV absorption spectra were taken by adding probe (2 μL of 10 mM stock solution in DMSO) to 998 μL of PBS buffer at different pH values (final probe conc.=20 μM) in quartz cuvette.
The pKa values of probes were determined from the absorption spectra.

VMAT2 = biological target: T1, VMAT2 (Rattus norvegicus, UniProt Q01827); experiment: Fluorescent microscopy probe uptake assay in VMAT2/HEK cells; format: cell-based; conditions: 20 μM probe; for Uptake pattern in screening with VMAT2/HEK and HEK cells: 30 min, VMAT2/HEK vs HEK cells, with or without 1 μM TBZ or reserpine; for Probe uptake in VMAT2-HEK cells: 30 min incubation
T1 construct: host or cells: HEK GnTI- (nonglycosylating) cells stably expressing VMAT2
Procedure: HEK GNTI^− (nonglycosylating) cell line stably expressing VMAT2 (VMAT2-HEK) and HEK GNU^− cell line stably transected with TetR (HEK) to serve as a control were kindly provided by the laboratory of Robert Edwards at UCSF. Cells were grown in DMEM+Glutamax (Invitrogen #10569) with 10% fetal bovine serum (FBS) (Atlanta Biologicals), 100 U/ml penicillin (Nitrogen), and 100 μg/ml streptomycin (Invitrogen). […] The medium was removed by aspiration, and the cells were washed with PBS (2 mL per well). […] Then, the probe uptake was initiated by adding 0.1 mL of experimental media containing probe (220 μM, prepared from 10 mM stock solution in DMSO, final conc.=20 μM in the uptake assay). After incubating at 37° C. for 30 minutes, the media was removed by aspiration, and the cells were washed with PBS (2 mL per well) and treated with probe-free experimental media. Fluorescence images were taken by using Leica FW 4000 equipped with Chroma custom filter cube (ex=350/50 nm, em=460/50 nm) and Hamamatsu digital camera C4742-95. The fluorescent images and bright field images were acquired for 2000 ms and 37 ms, respectively. All images were adjusted using the same contrast and brightness level using Images J (National Institute of Health).

[3] = Two-photon ratiometric pH measurement of secretory vesicles (LDCVs) in PC-12 cells
HEK cells = experiment: Fluorescent microscopy probe uptake in control (non-transfected) HEK cells; format: cell-based, human; conditions: 20 μM probe, 30 min incubation
Procedure: HEK GNTI^− (nonglycosylating) cell line stably expressing VMAT2 (VMAT2-HEK) and HEK GNU^− cell line stably transected with TetR (HEK) to serve as a control were kindly provided by the laboratory of Robert Edwards at UCSF. Cells were grown in DMEM+Glutamax (Invitrogen #10569) with 10% fetal bovine serum (FBS) (Atlanta Biologicals), 100 U/ml penicillin (Nitrogen), and 100 μg/ml streptomycin (Invitrogen). […] After 5 days, the cells looked fibroblastic and had reached ˜70% confluence. The medium was removed by aspiration, and the cells were washed with PBS (2 mL per well). […] Then, the probe uptake was initiated by adding 0.1 mL of experimental media containing probe (220 μM, prepared from 10 mM stock solution in DMSO, final conc.=20 μM in the uptake assay). After incubating at 37° C. for 30 minutes, the media was removed by aspiration, and the cells were washed with PBS (2 mL per well) and treated with probe-free experimental media. Fluorescence images were taken by using Leica FW 4000 equipped with Chroma custom filter cube (ex=350/50 nm, em=460/50 nm) and Hamamatsu digital camera C4742-95. The fluorescent images and bright field images were acquired for 2000 ms and 37 ms, respectively. All images were adjusted using the same contrast and brightness level using Images J (National Institute of Health).

[4] = Photostability of probe in fluorescence microscopy
VMAT1 = biological target: T2, VMAT1 (Rattus norvegicus, UniProt Q01818); experiment: Fluorescent microscopy uptake of Mini202 in PC-12 cells; format: cell-based
T2 construct: PC-12 cells express mostly VMAT1 on their secretory large dense core vesicles (LDCVs); host or cells: PC-12 cells
T2 sequence (Q01818 1-521): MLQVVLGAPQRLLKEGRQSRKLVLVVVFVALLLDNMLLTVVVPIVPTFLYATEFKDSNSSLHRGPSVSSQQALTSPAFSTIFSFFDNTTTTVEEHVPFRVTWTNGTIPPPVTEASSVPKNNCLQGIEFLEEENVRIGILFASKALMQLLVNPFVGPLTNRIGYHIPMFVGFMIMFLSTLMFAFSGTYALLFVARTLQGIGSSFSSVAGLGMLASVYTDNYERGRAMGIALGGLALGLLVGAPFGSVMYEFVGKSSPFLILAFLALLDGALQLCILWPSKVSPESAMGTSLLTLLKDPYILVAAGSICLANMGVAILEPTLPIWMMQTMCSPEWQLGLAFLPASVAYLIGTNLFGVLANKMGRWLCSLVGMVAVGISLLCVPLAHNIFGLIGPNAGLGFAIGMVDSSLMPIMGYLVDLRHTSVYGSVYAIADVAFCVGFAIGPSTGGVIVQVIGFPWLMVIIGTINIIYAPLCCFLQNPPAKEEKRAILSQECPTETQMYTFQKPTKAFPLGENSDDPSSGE
Procedure: PC-12 cells were purchased and maintained according to the protocols provided by American Type Culture Collection (ATCC, CRL-1721). Among the two variations of PC-12 provided by ATCC, the one displaying loosely adherent (with no PDL coating) and multicell-aggregating phenotype was used. PC-12 cells were grown in RPMI-1640 (Invitrogen, #11875) with 10% horse serum (Invitrogen, #16050-114), 5% fetal bovine serum (FBS) (Atlanta Biologicals), 100 U/ml penicillin (Invitrogen), and 100 μg/ml streptomycin (Invitrogen). […] After 6 days when the cells get ˜70% confluent, the medium was removed by aspiration, and the cells were washed with PBS (2 mL per well). […] Then, the probe uptake was initiated by adding 0.1 mL of experimental media containing Mini202 (220 μM, prepared from 10 mM stock solution in DMSO, final conc.=20 μM in the uptake assay) to the cells. After incubating the cells at 37° C. for 1 hour, the medium was removed by aspiration, and cells were washed with PBS (2 mL per well) and treated with dye-free experimental media. Fluorescence images were taken by using Leica FW 4000 equipped with Chroma custom filter cube (ex=350/50 nm, em=460/50 nm) and Hamamatsu digital camera C4742-95. The fluorescent images and bright field images were acquired for 2000 ms and 37 ms, respectively. […]

VMAT2-HEK cells = experiment: Chloroquine-induced Mini202 redistribution in VMAT2-HEK cells; format: cell-based, human; conditions: chloroquine 300 μM, 3 min, VMAT2-HEK cells labeled with Mini202
Procedure: For the chloroquine-induced Mini202 redistribution experiment, after probe loading and cell washing with PBS, 1 mL of experimental media containing 300 μM chloroquine was added to the cells at RT for 3 minutes, after which time fluorescent images were taken by the same procedure described above.

LDCVs in PC-12 cells = experiment: Two-photon ratiometric pH measurement of secretory vesicles (LDCVs) in PC-12 cells; conditions: PC-12 cells loaded with Mini202, 100 μM methamphetamine, 5 minutes, RT
[5] = n-octanol/PBS, pH 7.4, n-octanol / PBS pH 7.4, 20 μM probe
[6] = PBS buffer at different pH values, read-out: pKa
[7] = n-octanol / PBS pH 7.4, 20 μM probe

T1 sequence (Q01827 whole entry): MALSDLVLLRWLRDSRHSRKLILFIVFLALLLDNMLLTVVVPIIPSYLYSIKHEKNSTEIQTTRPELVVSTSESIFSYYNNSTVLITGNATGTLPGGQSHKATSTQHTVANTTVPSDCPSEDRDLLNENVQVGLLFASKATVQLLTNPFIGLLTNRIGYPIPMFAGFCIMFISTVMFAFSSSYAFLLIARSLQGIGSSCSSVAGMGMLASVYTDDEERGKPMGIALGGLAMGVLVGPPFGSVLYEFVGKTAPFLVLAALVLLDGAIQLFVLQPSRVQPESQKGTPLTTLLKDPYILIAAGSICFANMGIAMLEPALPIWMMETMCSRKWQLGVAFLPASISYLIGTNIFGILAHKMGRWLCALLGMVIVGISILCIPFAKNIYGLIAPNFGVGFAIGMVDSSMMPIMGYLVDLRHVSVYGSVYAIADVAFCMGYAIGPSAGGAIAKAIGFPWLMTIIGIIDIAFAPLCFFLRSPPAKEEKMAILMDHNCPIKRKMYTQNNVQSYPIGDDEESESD

| Compound | logD at 3 days [1, 5] | pKa [2, 6] | Uptake pattern in screening with VMAT2/HEK and HEK cells (VMAT2) | logD at 3 days [1, 7] | also measured |
| --- | --- | --- | --- | --- | --- |
| NCCc1cc(=O)oc2cc(O)ccc12 [Mini101] | -0.94 | 7.2 |  |  | pKa [2]: 7.24 |
| NCCc1cc(=O)oc2cc(O)c(Cl)cc12 [Mini102] | -1.45 | 5.8 |  |  | pKa [2]: 5.77 |
| NCCc1cc(=O)oc2cc(O)c(F)cc12 [Mini103] | -1.98 | 5.95 |  |  |  |
| CC(C)(C)c1cc2c(CCN)cc(=O)oc2cc1O [Mini104] | 0.89 | 7.94 | non-selective uptake |  |  |
| CC(C)(C)CC(C)(C)c1cc2c(CCN)cc(=O)oc2cc1O [Mini105] |  | 8.49 | non-selective uptake | 1.3 |  |
| NCCc1cc(=O)oc2c(Cc3ccccc3)c(O)c(F)cc12 [Mini106] |  | 6.09 | VMAT2 substrates | 0.18 |  |
| NCCc1cc2ccc(O)cc2oc1=O [Mini201] | -1.01 | 7.6 | VMAT2 substrates |  |  |
| NCCc1cc2cc(Cl)c(O)cc2oc1=O [Mini202] |  | 6.1 | VMAT2 substrates |  | LogD (at pH 7.4) [1, 7]: −1.5 and −1.42; pKa [3]: 5.93 ± 0.04; Probe uptake in VMAT2-HEK cells (VMAT2): highest uptake; also recorded: punctuate fluorescence patterns; Probe uptake in VMAT2-HEK cells (VMAT2; listed as Mini202.TFA): punctuate uptake in a VMAT2-dependent manner; also recorded: fluorescent puncta; Probe uptake in non-transfected HEK cells (HEK cells): No uptake; Probe uptake in non-transfected HEK cells (HEK cells; listed as Mini202.TFA): no uptake; pKa [2]: 6.06; Photostability [4]: photostable; Mini202 uptake / labeling in PC-12 cells (VMAT1; 20 μM, 1 h): fluorescent puncta; also recorded: VMAT1 substrate |
| NCCC(=O)c1cc2ccc(O)cc2oc1=O [Mini301] |  | 7 | no uptake in either cell lines | 0.14 |  |
| NCCC(=O)c1cc2cc(Cl)c(O)cc2oc1=O [Mini302] |  | 4.68 | no uptake in either cell lines | 0.24 |  |
| NCCc1cc2c(ccc3ccc(O)cc32)oc1=O [Mini401] |  | 9.36 | non-selective uptake | 0.86 |  |
| CCN(CC)CCCC(C)Nc1ccnc2cc(Cl)ccc12 (centres unmarked) [chloroquine] |  |  |  |  | Redistribution of Mini202 from acidic vesicles (VMAT2-HEK cells): diffusion of the punctuate fluorescent pattern; also recorded: redistribution of Mini202 from the acidic vesicles to cytosol |
| CN[C@@H](C)Cc1ccccc1 [methamphetamine] |  |  |  |  | emission ratio (I760/I692) after drug exposure (LDCVs in PC-12 cells): 1.19; vesicular pH in PC-12 cells after drug exposure (LDCVs in PC-12 cells): 6.36 and 6.4 |
| COC(=O)[C@H]1[C@H]2C[C@@H]3c4[nH]c5cc(OC)ccc5c4CCN3C[C@H]2C[C@@H](OC(=O)c2cc(OC)c(OC)c(OC)c2)[C@@H]1OC [reserpine, reference compound] |  |  |  |  | Effect of VMAT1 inhibitor on Mini202 uptake in PC-12 cells (VMAT1; reserpine 1 μM, 1 h pre-incubation, then 20 μM Mini202 1 h): no detectable labeling; also recorded: completely inhibited |
